From patent US20110319384A1, “Pharmaceutical Compositions” (priority 2005, published 2011) come the findings set out here.

Data set [1] has as its system patients with residual anxiety and depression despite SSRI treatment.
In data set [2] the test system is elderly patients with MDD and CV damage.
In data set [3] the test system is patients with refractory depression (RD). The data set can be described thus: Example 29: Cognitive Behavior Therapy (CBT) plus quetiapine or placebo.
Where [4] appears, read: add-on to antidepressants, mean dose 300 mg/day.

`OCCOCCN1CCN(C2=Nc3ccccc3Sc3ccccc32)CC1` [quetiapine, 11-[4-[2-(2-hydroxyethoxy)ethyl]-1-piperazinyl]-dibenzo[b,f][1,4]thiazepine]: in data set [1] (added to stable SSRI), the “mean HAM-A score after 9 weeks of treatment” value is reported as “about 6”, the “mean HAM-A score at baseline” value is “about 25”, the “mean HAM-D score after 9 weeks of treatment” value is recorded as “about 6” and the “mean HAM-D score at baseline” value is “about 20”. Also, in data set [1] (added to stable SSRI), the “mean State Anxiety Inventory (SAI) score after 9 weeks of treatment” value was “about 30” and the “mean State Anxiety Inventory (SAI) score at baseline” value is “about 51”. For the same compound, in data set [1] (in vivo), the “BARS or SAS scores” value was “no clinically relevant changes”; the “discontinuation as a result of an adverse event” value was “no patient discontinued therapy”; the “most common side effects” value was “Drowsiness, mild dry mouth, and constipation”; the “reduction in scores, HAM-A individual subjects analysis” value is no less than 50%. In addition, in data set [1] (in vivo), the serious adverse events result was “No serious adverse events occurred” and the weight gain result was “minimal for all patients but one”. For the same compound, in data set [2] (add-on to antidepressants), the “mean CGI-S score after 6 months” value is recorded as “about 5” and the “mean CGI-S score at baseline” value is “about 6”. Besides, in data set [2] (setting [4]), the “mean HAM-D score after 6 months” value is reported as “about 15” and the “mean HAM-D score at baseline” value is on record as “about 27”. Also, in data set [2] (in vivo), the “discontinuation of the study” value is on record as “No patients discontinued the study”. The side effects reported entry in data set [2] (the only side effects reported) is “Sedation and drowsiness”. In addition, the “lack of response drop-outs” value in data set [3] (50% drop-out rate in the CBT+placebo arm) is listed as “no lack of response drop-outs”. In addition, the “all primary efficacy measures (MADRS, HAM-D)” value in data set [3] (CBT 12 weekly sessions, quetiapine up to 200 mg twice a day, no significant reductions with CBT+placebo) is listed as “significantly reduced”. Besides, in data set [3] (in vivo), the “most common side effect” value was “Somnolence”, the serious adverse events entry is given as “No serious adverse events were observed”, the “study survivability (at least 4 or more CBT sessions prior to withdrawal)” value is “increased study survivability” and the tolerability result is reported as “generally well-tolerated”.
